Experimental data published in patent publication US4839353A, “Anti-ulcer substituted pyridine derivatives” (Banyu Pharmaceutical Co., Ltd., priority 1986, dated 1989).
Structures can show the parent of a compound that is named as a salt.

Legend:
H^+,K^+ -ATPase = target: T1, H^+,K^+ -ATPase (Oryctolagus cuniculus, UniProt P27112); assay: Inhibitory effects on the activity of H^+,K^+ -ATPase; assay type: biochemical; conditions: H^+,K^+ -ATPase-containing light membrane fractions from rabbit gastric glands; read-out: 50% Enzyme inhibitory concentration (IC50)
T1 construct: Rabbit gastric glands were homogenized and microsomal fractions were prepared; from tissue; host or cells: rabbit gastric glands, light microsomal membrane fraction
T1 sequence (P27112 2-1035 limits assumed): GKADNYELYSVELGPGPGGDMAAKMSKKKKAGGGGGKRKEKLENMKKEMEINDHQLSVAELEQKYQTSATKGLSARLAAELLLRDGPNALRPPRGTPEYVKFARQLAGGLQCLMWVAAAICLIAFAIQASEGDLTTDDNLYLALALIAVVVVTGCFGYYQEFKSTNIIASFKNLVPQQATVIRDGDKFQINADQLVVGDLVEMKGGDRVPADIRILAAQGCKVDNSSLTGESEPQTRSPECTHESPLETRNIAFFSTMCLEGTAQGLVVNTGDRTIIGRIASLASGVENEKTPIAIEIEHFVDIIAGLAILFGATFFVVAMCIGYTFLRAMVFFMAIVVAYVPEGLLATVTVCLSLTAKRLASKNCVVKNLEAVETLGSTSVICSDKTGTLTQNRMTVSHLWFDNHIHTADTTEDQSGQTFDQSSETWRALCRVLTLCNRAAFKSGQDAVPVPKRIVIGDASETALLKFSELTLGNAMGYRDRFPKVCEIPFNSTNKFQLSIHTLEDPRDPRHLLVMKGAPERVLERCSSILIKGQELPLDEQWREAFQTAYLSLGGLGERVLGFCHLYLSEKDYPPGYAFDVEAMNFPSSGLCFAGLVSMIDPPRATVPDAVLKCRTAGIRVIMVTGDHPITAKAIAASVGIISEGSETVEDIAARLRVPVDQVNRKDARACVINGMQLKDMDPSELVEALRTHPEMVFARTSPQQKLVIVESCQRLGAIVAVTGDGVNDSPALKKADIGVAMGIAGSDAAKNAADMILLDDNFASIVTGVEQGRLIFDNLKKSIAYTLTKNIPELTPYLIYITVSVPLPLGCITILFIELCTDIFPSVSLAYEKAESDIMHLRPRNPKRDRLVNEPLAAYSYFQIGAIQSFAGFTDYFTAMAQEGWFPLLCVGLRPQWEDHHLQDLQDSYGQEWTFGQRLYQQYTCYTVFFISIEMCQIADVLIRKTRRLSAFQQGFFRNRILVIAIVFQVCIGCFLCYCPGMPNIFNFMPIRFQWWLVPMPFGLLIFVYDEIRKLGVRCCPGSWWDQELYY
T1 sequence (P18597 whole entry partner): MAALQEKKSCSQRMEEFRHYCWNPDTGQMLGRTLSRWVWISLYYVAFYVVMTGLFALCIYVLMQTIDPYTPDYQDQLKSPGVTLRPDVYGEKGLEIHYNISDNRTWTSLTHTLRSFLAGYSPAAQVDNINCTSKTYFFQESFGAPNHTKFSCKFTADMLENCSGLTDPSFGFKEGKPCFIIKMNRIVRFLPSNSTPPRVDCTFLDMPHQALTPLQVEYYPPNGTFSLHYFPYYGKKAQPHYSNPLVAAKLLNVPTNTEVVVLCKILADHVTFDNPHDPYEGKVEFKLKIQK
Method: (1) Inhibitory effects on the activity of H^+,K^+ -ATPase Rabbit gastric glands were homogenized and microsomal fractions were prepared by differential centrifugation of the resultant homogenate. The microsomal fractions were layered on 37% sucrose and centrifuged to obtain light membrane fractions containing H^+,K^+ -ATPase. Using the H^+,K^+ -ATPase-containing fractions, the effects of the compounds of this invention and omeprazole on the activity of H^+,K^+ -ATPase were examined. The inhibitory activities of the compounds of this invention on H^+,K^+ -ATPase measured by the above method are shown in Table I.

[1] = system: gastric ulcer induced by ethanol-hydrochloric acid; assay: Effect of preventing gastric ulcer induced by ethanol-hydrochloric acid; assay type: in vivo; conditions: SD-strain male rats, oral, 30 min before 0.2N hydrochloric acid-50% ethanol (1 ml/rat); length of bleeding erosions; read-out: 50% Effective dose (ED50, mg/kg)
Method: (3) Effect of preventing gastric ulcer induced by ethanol-hydrochloric acid According to the method of Robert et al. (see "Gastroenterology" 77, 433-443 (1979), SD-strain rats (male, weighing 200 to 220 g, 8 rats in each group) were deprived of food for 24 hours and of water for 19 hours. Each of the test compounds was suspended in 0.5% carboxymethyl cellulose, and orally administered to the rats. Thirty minutes after administration, 0.2N hydrochloric acid-50% ethanol (1 ml/rat) was orally administered. One hour after the administration of ethanol-hydrochloric acid, the rats were killed. The stomachs were dissected out, and the lower part of the esophagus was nipped with a clip. Aqueous 1% formalin solution (12.0 ml) was poured into the stomachs from the duodenum and then the duodenum part was nipped with a clip. The whole stomachs were immersed in aqueous 1% formalin for about 10 minutes for fixation. The stomachs were opened along the greater curvature and then rinsed with water. The gastric mucosa was examined and the lengths of bleeding erosions which occurred in the glandular stomach were measured in mm under an anatomic microscope. From the test results obtained by the above method, the ED50 (50% effective dose) of each of the test compounds was calculated.

gastric acid secretion = assay: Gastric acid antisecretory activity (histamine-enhanced gastric acid secretion in anesthetized rats); assay type: in vivo; conditions: Rattus norvegicus, iv, 1.25 h; male Doryu rats, urethane anesthesia, histamine infusion 2 mg/kg/hr, test compound via jugular vein 75 min after start of infusion; read-out: Gastric acid antisecretory activity 50% Effective dose (ED50, mg/kg)
Method: (2) Gastric acid antisecretory activity The method of preparation was based on the technique of Osumi et al. (see "Life Science" 20, 1407, 1977). Male Doryu rats weighing about 250 g were deprived of food for 24 hours but were allowed free access to water before experiments. […] The esophagus was ligated, and bilateral vagus nerves were carefully separated and cut at the cervical portion. The abdomen was opened by a midoline incinion, and a polyethylene cannula (about 3.5 cm in length and 0.4 cm in diameter) was inserted into the stomach via an incision in the duodenum. After washout of the stomach with saline, 2.0 ml of fresh saline prewarmed at 38° C. was instilled and replaced with fresh solution at 15 min intervals. Several successive collections of basal acid secretion were made to confirm the steady level of secretion. After these collections, gastric acid secretion was enhanced by infusion of histamine. Gastric acid secretion was determined as follows: the total value of gastric solution recovered from the stomach every 15 min was titrated to pH 7.0 with 0.1N NaOH, using an automatic titrator (Radiometer, Copenhage, Denmark). Acid output secreted for 15 min were calculated as microequivalents per 15 min. […] From the acid output in a control group measured at the time when the acid output secreted was lowest, the acid secretion inhibitory ratio (R) was calculated in accordance with the following equation. [formula] wherein V° is the acid output produced when the animals were not treated with the test compounds (control), and V is the acid output acid produced when the test compounds were administered to the animals. Furthermore, from correlation line between the dose and the inhibitory ratio at the dose by using the method of least squares, the 50% inhibitory dose was determined.

SMILES	IC50 (H^+,K^+ -ATPase)	ED50 [1]	ED50 (gastric acid secretion)
Cc1cnc(COc2ccccc2)cc1N1CCCCC1.Cl [Test compound 1, 5-methyl-2-phenoxymethyl-4-piperidinopyridine hydrochloride]	8.4 µM	12.1 mg/kg	–
Cc1cnc(CSc2ccccc2)cc1N1CCCCC1.Cl [Test compound 5, 5-methyl-2-phenylthiomethyl-4-piperidinopyridine hydrochloride]	16 µM	9.2 mg/kg	–
Cc1cnc(CSc2ccc3ccccc3c2)cc1N1CCCCC1.Cl [Test compound 6, 5-methyl-2-[(2-naphthyl)thiomethyl]-4-piperidinopyridine hydrochloride]	9 µM	7.3 mg/kg	–
Cc1cnc(/C=C\c2ccc(Cl)c3ccccc23)cc1N1CCCCC1.Cl [Test compound 8, (Z)-2-[2-(4-chloro-1-naphthyl)vinyl]-5-methyl-4-piperidinopyridine hydrochloride]	4.8 µM	–	2.78 mg/kg
Cc1cnc(/C=C\c2cccc3c(C)cccc23)cc1N1CCCCC1 [Test compound 10, (Z)-2-[2-(5-methyl-1-naphthyl)vinyl]-5-methyl-4-piperidinopyridine hydrochloride]	6 µM	–	–
Cc1cnc(/C=C\c2cccc3cccc(C)c23)cc1N1CCCCC1 [Test compound 11, (Z)-2-[2-(8-methyl-1-naphthyl)vinyl]-5-methyl-4-piperidinopyridine]	2.3 µM	–	0.92 mg/kg
Cc1cnc(/C=C\c2cccc3ccccc23)cc1N1CCC(C)CC1.Cl [Test compound 14, (Z)-5-methyl-4-(4-methylpiperidino)-2-[2-(1-naphthyl)vinyl]pyridine hydrochloride]	2.8 µM	–	1.09 mg/kg
C(=C/c1cnccc1N1CCCCC1)/c1ccc2ccccc2c1 [Test compound 16, (Z)-3-[2-(2-naphthyl)vinyl]-4-piperidinopyridine]	2.6 µM	–	–
Cc1cnc(/C=C/c2ccc3ccccc3c2)cc1N1CCCCC1 [Test compound 17, (E)-5-methyl-2-[2-(2-naphthyl)vinyl]-4-piperidinopyridine hydrochloride]	4.3 µM	–	–
Cc1cnc(/C=C\c2ccc3ccccc3c2)cc1N1CCCCC1 [Test compound 18, (Z)-5-methyl-2-[2-(2-naphthyl)vinyl]-4-piperidinopyridine hydrochloride]	8.4 µM	–	–
Cc1ccc2cc(/C=C\c3cc(N4CCCCC4)c(C)cn3)ccc2c1 [Test compound 19, (Z)-5-methyl-2-[2-(6-methyl-2-naphthyl)-vinyl]-4-piperidinopyridine]	7.8 µM	–	–
Cc1cnc(/C=C\c2cccc(Cl)c2Cl)cc1N1CCCCC1 [Test compound 20, (Z)-2-[2-(2,3-dichlorophenyl)vinyl]-5-methyl-4-piperidinopyridine hydrochloride]	4.6 µM	–	–
Cc1cnc(CCc2cccc3ccccc23)cc1N1CCC(C)CC1.Cl [Test compound 21, 5-methyl-4-(4-methylpiperidino)-2-[2-(1-naphthyl)ethyl]pyridine hydrochloride]	2.7 µM	–	0.78 mg/kg
Cc1cnc(CCc2cccc3ccccc23)cc1N1CCCCC1 [Test compound 22, 5-methyl-2-[2-(1-naphthyl)ethy]-4-piperidinopyridine hydrochloride]	3.6 µM	5.4 mg/kg	2.5 mg/kg
Cc1cnc(CCc2ccc(C)c3ccccc23)cc1N1CCCCC1 [Test compound 23, 5-methyl-2-[2-(4-methyl-1-naphthyl)-ethyl]-4-piperidinopyridine hydrochloride]	4.6 µM	–	–
Cc1cnc(CCc2cccc3cccc(C)c23)cc1N1CCCCC1.Cl [Test compound 24, 5-methyl-2-[2-(8-methyl-1-naphthyl)-ethyl]-4-piperidinopyridine hydrochloride]	6 µM	–	2.72 mg/kg
Cc1cnc(CCc2cccc3ccccc23)cc1OC1CCCCC1.Cl [Test compound 25, 4-cyclohexyloxy-5-methyl-2-[2-(1-naphthyl)ethyl]pyridine hydrochloride]	2.6 µM	–	0.91 mg/kg
Cc1cnc(CCc2cccc3ccccc23)cc1N1CCCC(C)C1.Cl (stereo not drawn) [Test compound 26, 5-methyl-4-(3-methylpiperidino)-2-[2-(1-naphthyl)ethyl]pyridine hydrochloride]	1.7 µM	–	0.91 mg/kg
Cc1cnc(CCc2ccccc2)cc1N1CCCCC1.Cl [Test compound 27, 5-methyl-2-phenethyl-4-piperidinopyridine hydrochloride]	–	5.4 mg/kg	–
Cc1cnc(CCc2ccc3ccccc3c2)cc1N1CCCCC1.Cl [Test compound 28, 5-methyl-2-[2-(2-naphthyl)ethyl]-4-piperidinopyridine hydrochloride]	3 µM	3.6 mg/kg	–
Cc1ccc2cc(CCc3cc(N4CCCCC4)c(C)cn3)ccc2c1 [Test compound 29, 5-methyl-2-[2-(6-methyl-2-naphthyl)-ethyl]-4-piperidinopyridine hydrochloride]	2.3 µM	–	–
Cc1cnc(COc2ccc(C(C)(C)C)cc2)cc1N1CCCCC1 [compound 2]	3.5 µM	–	–
CCC(C)c1ccc(OCc2cc(N3CCCCC3)c(C)cn2)cc1 (stereo not drawn) [compound 3]	4.1 µM	–	–
Cc1cnc(COc2ccc(C3CCCCC3)cc2)cc1N1CCCCC1 [compound 4]	3.8 µM	–	–
Cc1cnc(/C=C\c2cccc3ccccc23)cc1N1CCCCC1 [compound 7]	2.2 µM	–	1.16 mg/kg
Cc1cnc(/C=C\c2ccc(F)c3ccccc23)cc1N1CCCCC1 [compound 9]	5.9 µM	–	–
Cc1cnc(/C=C\c2cccc3ccccc23)cc1OC1CCCCC1 [compound 12]	3.5 µM	–	1.35 mg/kg
Cc1cnc(/C=C\c2cccc3ccccc23)cc1N1CCCCCC1 [compound 13]	0.78 µM	–	0.9 mg/kg
Cc1cnc(/C=C\c2cccc3ccccc23)cc1N1CCCC(C)C1 (stereo not drawn) [compound 15]	1.7 µM	–	0.99 mg/kg
COc1ccc2[nH]c([S+]([O-])Cc3ncc(C)c(OC)c3C)nc2c1 (stereo not drawn) [omeprazole, reference compound]	6.2 µM	34.1 mg/kg	–
